In PMC9739371, “Deciphering the Binding of the Nuclear Localization Sequence of Myc Protein to the Nuclear Carrier Importin α3” (International Journal of Molecular Sciences, 2022):

Test: Translational diffusion NMR (DOSY)
Type: physicochemical
Conditions: 500 MHz, 10 °C, 1.8 mM peptide, 100 mM sodium phosphate pH 7.0, 100% D2O, 1% dioxane as reference
Protocol: The NMR spectra were acquired at 10 °C on a Bruker Avance 500 MHz spectrometer (Bruker GmbH, Karlsruhe, Germany), equipped with a triple resonance probe and z-pulse field gradients. Spectra were processed with Bruker TopSpin 2.1 (Bruker GmbH, Karlsruhe, Germany). […] Spectra were calibrated with 3-(trimethylsilyl) propionic acid-2,2,3,3-^2H4-sodium salt (TSP), by considering pH-dependent changes of its chemical shifts; the probe temperature was calibrated with pure methanol [49].
Measurements of the translational self-diffusion coefficient, D, were performed with the pulsed-gradient spin-echo sequence in the presence of 100% D2O. […] The gradient strength was varied in sixteen linear steps between 2% to 95% of the total power of the gradient coil. Gradient strength was calibrated by using the value of D for the residual proton water signal in a sample containing 100% D2O, in a 5-mm tube [51]. The length of the gradient was 2.5 ms; the time between two pulse gradients in the pulse sequence was 250 ms; and the recovery delay between the bipolar gradients was 100 µs. […] A final concentration of 1% of dioxane, which was assumed to have a hydrodynamic radius Rh = 2.12 Å [51], was added to the solution.

SMILES: C1COCCO1 [dioxane]
- translational diffusion coefficient D: 5.3 ± 0.6 × 10^−6 cm^2 s^−1
